Measured values as given in PMC5107130 (Pharmacological Research, 2016).
Entries after “also recorded” stand apart in the source; their conditions may differ. Like-named read-outs stand apart in the source and are kept apart here.

How the values were obtained:
[1] = tested on: HCT116 cells; assay: Cytotoxicity, lactate dehydrogenase; type: cell-based, human; settings: 48 h
[2] = tested on: HCT116 cells; assay: Cell proliferation, xCELLigence system; type: cell-based, human; settings: Cell Index, 48 h, concentration in the value
[3] = tested on: HCT116 cells; assay: Mitochondrial function, MTT assay; type: cell-based, human; settings: 48 h
[4] = target: T1, Recombinant full length human CBS (Homo sapiens, UniProt P35520); assay: AzMC fluorescence assay of CBS-derived H2S production; type: biochemical; settings: for % inhibition of CBS-induced AzMC fluorescence: copper compounds, mean ± SEM, n = 3
T1 sequence (P35520 1-551): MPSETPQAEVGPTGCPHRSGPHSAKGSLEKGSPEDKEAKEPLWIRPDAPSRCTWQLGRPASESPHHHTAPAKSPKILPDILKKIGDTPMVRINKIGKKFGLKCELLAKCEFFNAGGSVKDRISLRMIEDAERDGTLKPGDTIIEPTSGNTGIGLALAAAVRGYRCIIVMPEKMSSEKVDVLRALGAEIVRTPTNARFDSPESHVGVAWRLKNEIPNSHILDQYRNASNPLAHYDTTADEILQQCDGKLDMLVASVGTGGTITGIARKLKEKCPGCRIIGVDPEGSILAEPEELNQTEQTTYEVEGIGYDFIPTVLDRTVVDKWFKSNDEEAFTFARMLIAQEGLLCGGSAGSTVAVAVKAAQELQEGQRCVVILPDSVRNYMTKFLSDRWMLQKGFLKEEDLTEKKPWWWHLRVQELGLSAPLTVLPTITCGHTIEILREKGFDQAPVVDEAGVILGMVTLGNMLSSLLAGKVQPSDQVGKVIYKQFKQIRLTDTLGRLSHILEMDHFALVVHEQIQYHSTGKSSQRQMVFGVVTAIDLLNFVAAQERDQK

[5] = target: T1, Recombinant full length human CBS; assay: Methylene blue assay of CBS-derived H2S; type: biochemical; settings: read-out: % inhibition of CBS-induced methylene blue signal
[6] = Counterscreen: AzMC fluorescence signal generated by the H2S donor GYY4137; settings: for % inhibition of GYY4137-induced AzMC fluorescence / Confirmation (% inhibition of GYY4137-induced AzMC fluorescence): mean ± SEM, n = 3
[7] = tested on: CBS; settings: cited from earlier work; for % inhibition of CBS activity: 1 mM
[8] = tested on: CSE; settings: cited from earlier work
[9] = read-out: % inhibition of CBS-induced AzMC fluorescence, 10 μM, mean ± SEM, n = 3
[10] = read-out: % inhibition of CBS-induced AzMC fluorescence, 100 μM, mean ± SEM, n = 3
[11] = read-out: Confirmation (% inhibition of CBS-induced AzMC fluorescence), 30 μM, mean ± SEM, n = 3
[12] = read-out: Initial screen (% inhibition of CBS-induced AzMC fluorescence), 30 μM
[13] = read-out: % inhibition of CBS-induced AzMC fluorescence

## NNCc1ccc(O)c(O)c1O [2,3,4-trihydroxybenzylhydrazine]
[1]
  Cytotoxicity / LDH release in HCT116 cells: did not exert cytotoxic effects
[2]
  Effect on HCT116 cell proliferation (words): inhibited HCT116 cell proliferation in vitro at 10–300 μM
[3]
  MTT conversion in HCT116 cells: reduced MTT conversion at 300 μM
[4]; read-out: % inhibition of recombinant CBS activity, 30 μM, standard assay conditions
  inhibition at 30 µM: 51 ± 2%
[4]; read-out: % inhibition of recombinant CBS activity, 100 μM, standard assay conditions, freshly dissolved
  inhibition at 100 µM: 82%

## O=C(O)C1=CC(=C(c2ccc(O)c(C(=O)O)c2)c2ccc(O)c(C(=O)O)c2)C=CC1=O [Aurintricarboxylic acid]
[5]
  inhibition at 10 µM: 38 ± 2%
  inhibition at 30 µM: 61 ± 1%
  inhibition at 100 µM: 72 ± 1%
[2]
  Effect on HCT116 cell proliferation (words): did not inhibit cell proliferation at 10–100 μM; also recorded: at 300 μM increased cell proliferation
[2]; listed as aurintricarboxylic acid
  Effect on HCT116 cell proliferation (words): stimulated cell proliferation at 300 μM
[4]
  IC50: ~3 µM
[4]; [9]
  inhibition at 10 µM: 72 ± 1%
[4]; [10]
  inhibition at 100 µM: 94 ± 1%
[4]; [11]
  inhibition at 30 µM: 87 ± 1%
[4]; [12]
  inhibition at 30 µM: 59%
[6]; 10 μM
  % inhibition of GYY4137-induced AzMC fluorescence: −3 ± 2%
[6]; 30 μM
  Confirmation (% inhibition of GYY4137-induced AzMC fluorescence): −2 ± 1%
[6]; 100 μM
  % inhibition of GYY4137-induced AzMC fluorescence: 6 ± 1%

## [Cl][Cu][Cl] [CuCl2, copper(II) chloride]
[1]
  Cytotoxicity / LDH release in HCT116 cells: paradoxical reduction in LDH activity
[2]
  Effect on HCT116 cell proliferation (words): only inhibited HCT116 cells proliferation at the highest concentration tested (1 mM)
[2]; listed as copper ions
  Effect on HCT116 cell proliferation (words): up to 300 μM, did not inhibit HCT116 cell proliferation
[3]
  MTT conversion in HCT116 cells: decreased MTT conversion
[4]; 0.1 μM
  % inhibition of CBS-induced AzMC fluorescence: 36 ± 1%
[4]; 0.3 μM
  % inhibition of CBS-induced AzMC fluorescence: 60 ± 2%
[4]; 1 μM
  % inhibition of CBS-induced AzMC fluorescence: 90 ± 1%
[4]; read-out: IC50, inhibition of recombinant CBS (CBS-induced AzMC fluorescence), cell-free, 2 mM L-cysteine and homocysteine
  IC50: ~0.2 µM
[6]; copper compounds, 0.1 μM
  % inhibition of GYY4137-induced AzMC fluorescence: 1 ± 1%
[6]; copper compounds, 0.3 μM
  % inhibition of GYY4137-induced AzMC fluorescence: 10 ± 1%
[6]; copper compounds, 1 μM
  % inhibition of GYY4137-induced AzMC fluorescence: 14 ± 1%

## N[C@@H]1CON=C1O [D-cycloserine]
[7]
  % inhibition of CBS activity: 15–20%

## Oc1c(Cl)cc(Cl)c(Cl)c1Cc1c(O)c(Cl)cc(Cl)c1Cl.Oc1c(Cl)cc(Cl)c(Cl)c1Cc1c(O)c(Cl)cc(Cl)c1Cl [Hexachlorophene, 2,2′-methylenebis(3,4,6-trichlorophenol)-3,4,6-trichloro-2-[(2,3,5-trichloro-6-hydroxyphenyl)methyl]phenol]
[1]
  Cytotoxicity / LDH release in HCT116 cells: exerted cytotoxic effects
[5]
  inhibition at 10 µM: 21 ± 1%
  inhibition at 30 µM: 31 ± 1%
  inhibition at 100 µM: 64 ± 1%
[2]
  Effect on HCT116 cell proliferation (words): did not affect HCT116 proliferation up to 3 μM; also recorded: fully inhibited cell proliferation at 10 μM; also recorded: inhibits HCT116 proliferation at fairly low concentrations (10 μM)
[4]
  IC50: ~60 µM
[4]; [9]
  inhibition at 10 µM: 3 ± 1%
[4]; [10]
  inhibition at 100 µM: 70 ± 1%
[4]; [11]
  inhibition at 30 µM: 12 ± 1%
[4]; [12]
  inhibition at 30 µM: 48%
[6]; 10 μM
  % inhibition of GYY4137-induced AzMC fluorescence: −4 ± 2%
[6]; 30 μM
  Confirmation (% inhibition of GYY4137-induced AzMC fluorescence): 1 ± 1%
[6]; 100 μM
  % inhibition of GYY4137-induced AzMC fluorescence: −2 ± 1%

## Cn1ncnc2c(=O)n(C)c(=O)nc1-2 [NSC67078, 1,6-dimethyl-pyrimido[5,4-e]-1,2,4-triazine-5,7(1H,6H)-dione]
[5]
  inhibition at 1 µM: 59 ± 2%
  inhibition at 10 µM: 73 ± 1%
  inhibition at 30 µM: 95 ± 1%
[3]
  MTT conversion in HCT116 cells: suppression of MTT conversion
[8]
  Potency of CSE inhibition relative to CBS inhibition (fold lower): 3 fold
[4]
  IC50: ~1 µM
[4]; [13]
  inhibition at 1 µM: 47 ± 1%
  inhibition at 10 µM: 88 ± 1%
  inhibition at 30 µM: 93 ± 1%
[6]; 1 μM
  % inhibition of GYY4137-induced AzMC fluorescence: 25 ± 1%
[6]; 10 μM
  % inhibition of GYY4137-induced AzMC fluorescence: 65 ± 1%
[6]; 30 μM
  % inhibition of GYY4137-induced AzMC fluorescence: 78 ± 1%
[6]; read-out: IC50, inhibition of GYY4137-induced AzMC fluorescence, scavenging/non-specific effects
  IC50: ~6 µM

## C#CCC(N)C(=O)O (stereo not shown) [PAG]
[7]
  CBS inhibition: is not an inhibitor of CBS

## O=C(OC[C@H]1O[C@@H](OC(=O)c2cc(O)c(O)c(OC(=O)c3cc(O)c(O)c(O)c3)c2)[C@H](OC(=O)c2cc(O)c(O)c(OC(=O)c3cc(O)c(O)c(O)c3)c2)[C@@H](OC(=O)c2cc(O)c(O)c(OC(=O)c3cc(O)c(O)c(O)c3)c2)[C@@H]1OC(=O)c1cc(O)c(O)c(OC(=O)c2cc(O)c(O)c(O)c2)c1)c1cc(O)c(O)c(OC(=O)c2cc(O)c(O)c(O)c2)c1 [Tannic acid, 2,3-dihydroxy-5-({[(2R,3R,4S,5R,6R)-3,4,5,6-tetrakis({3,4-dihydroxy-5-[(3,4,5-trihydroxyphenyl)carbonyloxy]phenyl}carbonyloxy)oxan-2-yl]methoxy}carbonyl)phenyl 3,4,5-trihydroxybenzoate]
[1]
  Cytotoxicity / LDH release in HCT116 cells: without signs of cytotoxicity
[5]
  inhibition at 10 µM: 24 ± 9%
  inhibition at 30 µM: 46 ± 3%
  inhibition at 100 µM: 56 ± 3%
[2]
  Effect on HCT116 cell proliferation (words): concentration-dependently inhibited proliferation, starting with 10 μM; also recorded: complete inhibition was seen at 100 μM
[4]
  IC50: ~40 µM
[4]; [9]
  inhibition at 10 µM: 28 ± 2%
[4]; read-out: % inhibition of CBS-induced AzMC fluorescence, 30 μM, mean ± SEM, n = 3
  inhibition at 30 µM: 43 ± 1%
[4]; [10]
  inhibition at 100 µM: 75 ± 1%
[4]; [11]
  inhibition at 30 µM: 43 ± 1%
[4]; [12]
  inhibition at 30 µM: 73%
[6]; 10 μM
  % inhibition of GYY4137-induced AzMC fluorescence: −1 ± 1%
[6]; 30 μM
  % inhibition of GYY4137-induced AzMC fluorescence: 3 ± 2%
  Confirmation (% inhibition of GYY4137-induced AzMC fluorescence): 3 ± 2%
[6]; 100 μM
  % inhibition of GYY4137-induced AzMC fluorescence: 8 ± 3%

## NNC(=O)c1ccncc1 [isoniazid]
[7]
  % inhibition of CBS activity: 15–20%
